Data as given in patent US20210100246A1, “PYRIDYL-FORMAMIDINES HAVING A FUNGICIDAL ACTIVITY, THEIR AGRONOMIC COMPOSITIONS AND USE THEREOF” (ISAGRO, S.p.A., priority 2017, published 2021).

Tests used:
[1] = test system: Puccinia Recondita; assay: Preventive fungicidal activity (5 days) against Puccinia Recondita on wheat; type: in vivo; conditions: for Activity P5 NT (reduction of leaf area affected, parts developed during the test) / Activity P5 T (reduction of leaf area affected, parts treated directly) / effectiveness in containing the disease (in words): wheat; for Activity P5 NT (reduction of leaf area affected, parts developed during the test): non-treated parts (NT); for effectiveness in containing the disease (in words): summary of Table 4
Description: Determination of the preventive fungicidal activity (5 days) against Puccinia Recondita on wheat.
(§1) Leaves of wheat plants of the Salgemma variety, grown in pots in a conditioned environment at 20° C. and 70% of Relative Humidity (RH) were treated by spraying both sides of the leaves with the compound under examination (see Table 4 hereunder) dispersed in a hydroacetonic solution at 20% by volume of acetone.
After remaining 5 days in a conditioned environment, the plants were sprayed on both sides of the leaves with an aqueous suspension of conidia of Puccinia Recondita (2 mg of inoculum per 1 ml of solution for infection).
After spraying, the plants were kept in a humidity-saturated environment at a temperature ranging from 18 to 24° C. for the incubation period of the fungus (1 day).
At the end of this period, the plants were put in a greenhouse with a relative humidity (RH) of 70% and at a temperature of 18-24° C. for 14 days.
At the end of this period, the external symptoms of the pathogen appeared and it was therefore possible to proceed with the visual evaluation of the intensity of the infection, both on the parts treated directly with the products (T) and on the parts developed during the implementation of the test (NT).
(§2) The fungicidal activity is expressed as a percentage of the reduction, with respect to non-treated seedlings (comparison), in the area of the leaf affected by the disease (100=full effectiveness; 0=zero effectiveness).

[2] = test system: wheat seedlings; assay: Phytotoxicity (percentage of leaf necrosis) on wheat seedlings; type: in vivo; conditions: for Phytotoxicity % N.F. (leaf necrosis): wheat seedlings, scale 0-100
Description: as §1
At the same time, an evaluation of the phytotoxicity was effected (percentage of leaf necrosis) induced on the wheat seedlings by the application of the products: in this case the evaluation scale ranges from 0 (completely healthy plant) to 100 (completely necrotic plant).

[3] = test system: Uromyces Appendiculatus; assay: Preventive fungicidal activity (5 days) against Uromyces Appendiculatus on beans; type: in vivo
Description: Determination of the preventive fungicidal activity (5 days) against Uromyces Appendiculatus on beans.
(§3) Bean plants cv. Borlotto of Vigevano, grown in pots in a conditioned environment, were treated by spraying both sides with the products under examination in a hydroacetonic solution with 20% by volume of acetone (vol./vol.).
After remaining 5 days in a conditioned environment at 23° C. and 70% of relative humidity, the plants were sprayed on the lower side with an aqueous suspension of spores of Uromyces Appendiculatus (200,000 spores/cc); after remaining 24 hours in a humidity-saturated environment, they were re-transferred to the conditioned environment.
After this period, the external symptoms of the pathogen appeared and it was therefore possible to proceed with the visual evaluation of the intensity of the infection.
as §2

[4] = test system: Sphaerotheca Fuliginea; assay: Preventive fungicidal activity (7 days) against Sphaerotheca Fuliginea on cucumbers; type: in vivo
Description: Determination of the preventive fungicidal activity (7 days) against Sphaerotheca Fuliginea on cucumbers.
(§4) Cucumber plants cv. Lungo of China, grown in pots in a conditioned environment were treated by spraying both sides with the products under examination in a hydroacetonic solution with 20% by volume of acetone (vol./vol.).
7 days after the treatment, the plants were sprayed on the upper side with an aqueous suspension of spores of Sphaerotheca Fuliginea (200,000 spores/cc); they were then re-transferred to the conditioned environment.
At the end of the period of incubation (8 days), the evaluation of the intensity of the infection was finally effected.
as §2

[5] = test system: cucumber seedlings; assay: Phytotoxicity (percentage of leaf necrosis) on cucumber seedlings; type: in vivo; conditions: scale 0-100
Description: as §4
At the same time, an evaluation of the phytotoxicity was effected (percentage of leaf necrosis) induced on the cucumber seedlings by the application of the products: in this case the evaluation scale ranges from 0 (completely healthy plant) to 100 (completely necrotic plant).

[6] = test system: bean seedlings; assay: Phytotoxicity (percentage of leaf necrosis) on bean seedlings; type: in vivo; conditions: scale 0-100
Description: as §3
At the same time, an evaluation of the phytotoxicity was effected (percentage of leaf necrosis) induced on the bean seedlings by the application of the products: in this case the evaluation scale ranges from 0 (completely healthy plant) to 100 (completely necrotic plant).

[7] = Accelerated stability test of 5% solutions in commercial solvents (54° C., 2 weeks, HPLC); type: physicochemical
Description: Stability tests of the compositions containing compounds having formula (I) in a solvent
In order to evaluate the chemical stability of the compounds having Formula (I) in a solvent, 5% solutions were prepared, containing 250 mg of compounds Nr. 1, 17, 39 and 40, dissolved in 4.75 g of various commercial solvents used for the preparation of emulsifiable concentrates.
The resulting solutions were put in an oven at 54° C. for 2 weeks (according to Cipac MT 46.1 update 2012) and then analyzed by means of HPLC in order to verify the concentration of the active ingredient contained therein. The percentage of degradation of the compound having Formula (I) was therefore obtained, after the accelerated stability test.

[8] = solvent ADMA 10 (N,N-dimethyldecanamide)
[9] = solvent Alkamuls T/20 (ethoxylated sorbitan monolaurate)
[10] = solvent CME (rapeseed methyl ester)
[11] = solvent FMPC (N-formylmorpholine and propylene carbonate)
[12] = solvent Green 25 (dimethylsulfoxide, acetophenone, 2-ethylhexyl acetate)
[13] = solvent Purasolv BL (butyl lactate)
[14] = solvent RPDE (dimethyl glutarate, dimethyl succinate, dimethyl adipate)

| Compound | Activity P5 NT (reduction of leaf area affected, parts developed during the test) ([1]; 125 ppm) | Activity P5 T (reduction of leaf area affected, parts treated directly) ([1]; 125 ppm) | Activity P5 NT (reduction of leaf area affected, parts developed during the test) ([1]; 250 ppm) | Activity P5 T (reduction of leaf area affected, parts treated directly) ([1]; 250 ppm) | Phytotoxicity % N.F. (leaf necrosis) ([2]; 125 ppm) | Phytotoxicity % N.F. (leaf necrosis) ([2]; 250 ppm) | effectiveness in containing the disease (in words) [1] | Activity P5 ([3]; 30 ppm) | Activity P5 ([3]; 125 ppm) | symptoms of phytotoxicity on the plant (in words) ([2]; wheat, summary of Table 4) | Phytotoxicity % N.F. (leaf necrosis) ([6]; 30 ppm) | Phytotoxicity % N.F. (leaf necrosis) ([6]; 125 ppm) | percentage of degradation [7, 8] | percentage of degradation [7, 9] | percentage of degradation [7, 10] | percentage of degradation [7, 11] | percentage of degradation [7, 12] | percentage of degradation ([7]; solvent Propylene carbonate) | percentage of degradation [7, 13] | percentage of degradation [7, 14] | also measured |
| --- | --- | --- | --- | --- | --- | --- | --- | --- | --- | --- | --- | --- | --- | --- | --- | --- | --- | --- | --- | --- | --- |
| CCN(C)C=Nc1cc(Br)c(OCCC(C)C)nc1C [CR1, N-ethyl-N-methyl-N′-[5-bromo-2-methyl-6-(3-methyl-butyloxy)-3-pyridyl]-formamidine, reference compound] | 20% | 60% | 50% | 80% | 5 % N.F. | 10 % N.F. |  |  |  |  |  |  |  |  |  |  |  |  |  |  |  |
| CCN(C)C=Nc1cc(C)c(SCc2cccc(C(F)(F)F)c2)nc1C [Compound 3, N-ethyl-N-methyl-N′-2,5-dimethyl-6-{[3(trifluoromethyl)benzyl]thio}pyridyl-3-formamidine] | 93% | 100% | 98% | 100% |  |  | effective in containing the disease | 100% | 100% |  |  |  |  |  |  |  |  |  |  |  | symptoms of phytotoxicity on the plant (in words) ([2]; in vivo): do not show any symptoms of phytotoxicity; Activity P5 ([4]; 30 ppm): 98%; Activity P5 ([4]; 125 ppm): 100%; Phytotoxicity % N.F. (leaf necrosis) ([5]; 30 ppm): 1 % N.F.; Phytotoxicity % N.F. (leaf necrosis) ([5]; 125 ppm): 3 % N.F. |
| CCN(C)C=Nc1cc(Br)c(SCCC(C)C)nc1C [Compound 5] | 45% | 85% | 65% | 100% | 0 % N.F. | 0 % N.F. | effective in containing the disease |  |  | do not show any symptoms of phytotoxicity |  |  |  |  |  |  |  |  |  |  | activity compared with CR1 (in words) ([1]; also at low dosages (125 ppm)): more active |
| CCCCCCSc1nc(C)c(N=CN(C)CC)cc1C [Compound 17] | 55% | 95% | 65% | 98% | 0 % N.F. | 0 % N.F. | effective in containing the disease | 100% | 100% | do not show any symptoms of phytotoxicity | 0 % N.F. | 0 % N.F. | 1.57% | 74.78% | 16% | 0.79% | 2.96% | 0% | 100% | 1.93% |  |
| CCN(C)C=Nc1cc(C)c(SCc2c(F)cccc2F)nc1C [Compound 39] | 88% | 95% | 97% | 98% | 0 % N.F. | 0 % N.F. | effective in containing the disease | 100% | 100% | do not show any symptoms of phytotoxicity | 0 % N.F. | 0 % N.F. | 0% | 79.78% | 17.31% | 1.53% | 1.84% | 0.61% | 100% | 1.13% |  |
| CCN(C)C=Nc1cc(C)c(SCC2CCCCC2)nc1C [Compound 40] | 55% | 80% | 70% | 90% | 0 % N.F. | 0 % N.F. | effective in containing the disease | 100% | 100% | do not show any symptoms of phytotoxicity | 0 % N.F. | 0 % N.F. | 1.09% | 81.02% | 12.76% | 0% | 2.82% | 0% | 100% | 1.71% |  |
| N-ethyl-N-methyl-N′-[5-bromo-2-methyl-6-[(4-methylpentyloxy]pyridyl-3-formamidine [CR2, reference compound] |  |  |  |  |  |  |  | 80% | 90% |  |  |  |  |  |  |  |  |  |  |  | Activity P5 ([4]; 30 ppm): 75%; Activity P5 ([4]; 125 ppm): 85% |
